{"source": "patent US20240216401A1", "about": "“COMBINATION THERAPY BY USING AKR1C3-ACTIVATED COMPOUND WITH IMMUNE CHECKPOINT INHIBITOR” (OBI Pharma, Inc., priority 2021, published 2024)", "system": "T helper (TH) cells (CD45^+CD4^+ T cells) in tumor-infiltrating lymphocytes", "assay": "Example 2: flow cytometry, percentage of TH cells in TILs", "type": "in vivo, Mus musculus", "procedure": "Mice were sacrificed by CO2 euthanasia at the end of the study duration, and the connective tissue around tumor was resected. The tumor samples were then weighed and cut equally into three sections if the tumor weight over 400 mg. The tumor tissue was prepared for the isolation of tumor-infiltrating lymphocytes (TILs). The rest of one section was fixed in 10% formaldehyde and embedded in paraffin; the other was stored at a temperature below −70° C.\nThe tumor samples were dissected into smaller fragments using scalpels and then digested with a cocktail of collagenase, DNase I, and Hyaluronidase (Collagenase #C5138, DNase I #D5025, Hyaluronidase #H6254, SigmaAldrich) for at least 2 hours.\nCells were stained with the fluorescently conjugated surface antibodies and incubated for 30 minutes at 4° C., and then resuspended in staining buffer for flow cytometric analysis. Flow cytometry was done using a Navios EX Flow Cytometer (Beckman Coulter). Data were analyzed using the Kaluza Analysis Software (Beckman Coulter).", "key": {"[1]": {"settings": "G2: OBI-3424 (0.3 mg/kg), group Mean"}, "[2]": {"settings": "G2: OBI-3424 (0.3 mg/kg), individual animals, 0.3 mg/kg"}, "[3]": {"settings": "G3: OBI-3424 (1 mg/kg), group Mean"}, "[4]": {"settings": "G3: OBI-3424 (1 mg/kg), individual animals, 1 mg/kg"}}, "note": "Where “and” joins values, the source holds several entries; their conditions need not be identical. Identical values can stand only once.", "data": [{"smiles": "C[C@H](OP(=O)(N1CC1)N1CC1)c1ccc([N+](=O)[O-])c(Oc2cccc(C(=O)N(C)C)c2)c1", "note": "[OBI-3424, (S)-1-(3-(3-N,N-dimethylaminocarbonyl)phenoxyl-4-mtrophenyl)-1-ethyl-N,N′-bis(ethylene)phosphoramidate]", "values": [{"measurement": "CD69^+ TH cells (CD45^+CD4^+CD69^+) Total %", "setting": "[1]", "value": 8.46, "unit": "%"}, {"measurement": "Foxp3^+ Treg cells (CD45^+CD4^+CD25^+Foxp3^+) Cell count (×10^5)", "setting": "[1]", "value": "0.24 ×10^5"}, {"measurement": "Foxp3^+ Treg cells (CD45^+CD4^+CD25^+Foxp3^+) TH Gated %", "setting": "[1]", "value": 5.27, "unit": "%"}, {"measurement": "Foxp3^+ Treg cells (CD45^+CD4^+CD25^+Foxp3^+) Total %", "setting": "[1]", "value": 0.12, "unit": "%"}, {"measurement": "PD-1^+ TH cells (CD45^+CD4^+ PD-1^+) Cell count (×10^5)", "setting": "[1]", "value": "20.36 ×10^5"}, {"measurement": "PD-1^+ TH cells (CD45^+CD4^+ PD-1^+) TH Gated %", "setting": "[1]", "value": 93.96, "unit": "%"}, {"measurement": "PD-1^+ TH cells (CD45^+CD4^+ PD-1^+) Total %", "setting": "[1]", "value": 12.11, "unit": "%"}, {"measurement": "TH cells (CD45^+CD4^+) CD45^+ Gated %", "setting": "[1]", "value": 33.51, "unit": "%"}, {"measurement": "TH cells (CD45^+CD4^+) Cell count (×10^5)", "setting": "[1]", "value": "21.50 ×10^5"}, {"measurement": "TH cells (CD45^+CD4^+) Total %", "setting": "[1]", "value": 12.88, "unit": "%"}, {"measurement": "CD25^+ TH cells (CD45^+CD4^+ CD25^+) Total %", "setting": "[2]", "value": "1.65% and 2.12% and 4.23% and 2.84%"}, {"measurement": "CD25^+ TH cells (CD45^+CD4^+CD25^+) Cell count (×10^5)", "setting": "[2]", "value": "4.34 ×10^5 and 3.39 ×10^5 and 8.91 ×10^5 and 0.45 ×10^5 and 10.43 ×10^5 and 2.06 ×10^5"}, {"measurement": "CD25^+ TH cells (CD45^+CD4^+CD25^+) TH Gated %", "setting": "[2]", "value": "18.38% and 17.49% and 18.21% and 10.15% and 30.45% and 14.61%"}, {"measurement": "CD69^+ TH cells (CD45^+CD4^+CD69^+) Cell count (×10^5)", "setting": "[2]", "value": "14.86 ×10^5 and 13.89 ×10^5 and 28.08 ×10^5 and 3.35 ×10^5 and 16.93 ×10^5 and 6.24 ×10^5"}, {"measurement": "CD69^+ TH cells (CD45^+CD4^+CD69^+) TH Gated %", "setting": "[2]", "value": "63.07% and 71.55% and 57.32% and 49.45% and 44.32%"}, {"measurement": "CD69^+ TH cells (CD45^+CD4^+CD69^+) Total %", "setting": "[2]", "value": "7.64% and 6.79% and 5.20% and 15.65% and 6.87% and 8.60%"}, {"measurement": "Foxp3^+ Treg cells (CD45^+CD4^+CD25^+Foxp3^+) Cell count (×10^5)", "setting": "[2]", "value": "0.21 ×10^5 and 0.27 ×10^5 and 0.43 ×10^5 and 0.03 ×10^5 and 0.39 ×10^5 and 0.08 ×10^5"}, {"measurement": "Foxp3^+ Treg cells (CD45^+CD4^+CD25^+Foxp3^+) TH Gated %", "setting": "[2]", "value": "5.03% and 7.95% and 5.08% and 6.05% and 3.69% and 3.81%"}, {"measurement": "Foxp3^+ Treg cells (CD45^+CD4^+CD25^+Foxp3^+) Total %", "setting": "[2]", "value": "0.11% (2×) and 0.13% (2×) and 0.08% and 0.16%"}, {"measurement": "PD-1^+ TH cells (CD45^+CD4^+ PD-1^+) Cell count (×10^5)", "setting": "[2]", "value": "21.12 ×10^5 and 16.11 ×10^5 and 38.56 ×10^5 and 4.30 ×10^5 and 32.19 ×10^5 and 9.90 ×10^5"}, {"measurement": "PD-1^+ TH cells (CD45^+CD4^+ PD-1^+) TH Gated %", "setting": "[2]", "value": "98.48% and 81.16% and 94.89% and 90.86% and 99.60% and 98.76%"}, {"measurement": "PD-1^+ TH cells (CD45^+CD4^+ PD-1^+) Total %", "setting": "[2]", "value": "10.86% and 7.88% and 7.14% and 20.09% and 13.06% and 13.65%"}, {"measurement": "TH cells (CD45^+CD4^+) CD45^+ Gated %", "setting": "[2]", "value": "59.01% and 26.17% and 17.42% and 32.52% and 29.44% and 36.50%"}, {"measurement": "TH cells (CD45^+CD4^+) Cell count (×10^5)", "setting": "[2]", "value": "21.45 ×10^5 and 19.84 ×10^5 and 40.61 ×10^5 and 4.73 ×10^5 and 32.34 ×10^5 and 10.02 ×10^5"}, {"measurement": "TH cells (CD45^+CD4^+) Total %", "setting": "[2]", "value": "11.03% and 9.70% and 7.52% and 22.11% and 13.12% and 13.82%"}, {"measurement": "CD25^+ TH cells (CD45^+CD4^+ CD25^+) Total %", "setting": "[3]", "value": 3.32, "unit": "%"}, {"measurement": "CD25^+ TH cells (CD45^+CD4^+CD25^+) Cell count (×10^5)", "setting": "[3]", "value": "2.83 ×10^5"}, {"measurement": "CD25^+ TH cells (CD45^+CD4^+CD25^+) TH Gated %", "setting": "[3]", "value": 13.39, "unit": "%"}, {"measurement": "CD69^+ TH cells (CD45^+CD4^+CD69^+) Cell count (×10^5)", "setting": "[3]", "value": "12.24 ×10^5"}, {"measurement": "CD69^+ TH cells (CD45^+CD4^+CD69^+) TH Gated %", "setting": "[3]", "value": 61.30, "unit": "%"}, {"measurement": "CD69^+ TH cells (CD45^+CD4^+CD69^+) Total %", "setting": "[3]", "value": 15.55, "unit": "%"}, {"measurement": "Foxp3^+ Treg cells (CD45^+CD4^+CD25^+Foxp3^+) Cell count (×10^5)", "setting": "[3]", "value": "0.07 ×10^5"}, {"measurement": "Foxp3^+ Treg cells (CD45^+CD4^+CD25^+Foxp3^+) TH Gated %", "setting": "[3]", "value": 3.04, "unit": "%"}, {"measurement": "Foxp3^+ Treg cells (CD45^+CD4^+CD25^+Foxp3^+) Total %", "setting": "[3]", "value": 0.09, "unit": "%"}, {"measurement": "PD-1^+ TH cells (CD45^+CD4^+ PD-1^+) Cell count (×10^5)", "setting": "[3]", "value": "19.54 ×10^5"}, {"measurement": "PD-1^+ TH cells (CD45^+CD4^+ PD-1^+) TH Gated %", "setting": "[3]", "value": 97.01, "unit": "%"}, {"measurement": "PD-1^+ TH cells (CD45^+CD4^+ PD-1^+) Total %", "setting": "[3]", "value": 24.35, "unit": "%"}, {"measurement": "TH cells (CD45^+CD4^+) CD45^+ Gated %", "setting": "[3]", "value": 41.85, "unit": "%"}, {"measurement": "TH cells (CD45^+CD4^+) Cell count (×10^5)", "setting": "[3]", "value": "20.13 ×10^5"}, {"measurement": "TH cells (CD45^+CD4^+) Total %", "setting": "[3]", "value": 25.05, "unit": "%"}, {"measurement": "CD25^+ TH cells (CD45^+CD4^+ CD25^+) Total %", "setting": "[4]", "value": "1.46% and 2.88% and 2.69% and 5.06% and 4.55% and 3.26%"}, {"measurement": "CD25^+ TH cells (CD45^+CD4^+CD25^+) Cell count (×10^5)", "setting": "[4]", "value": "0.42 ×10^5 and 3.63 ×10^5 and 1.90 ×10^5 and 5.00 ×10^5 and 3.39 ×10^5 and 2.64 ×10^5"}, {"measurement": "CD25^+ TH cells (CD45^+CD4^+CD25^+) TH Gated %", "setting": "[4]", "value": "5.51% and 11.47% and 14.05% and 20.81% and 18.53% and 9.97%"}, {"measurement": "CD69^+ TH cells (CD45^+CD4^+CD69^+) Cell count (×10^5)", "setting": "[4]", "value": "4.74 ×10^5 and 19.21 ×10^5 and 9.19 ×10^5 and 10.91 ×10^5 and 12.59 ×10^5 and 16.82 ×10^5"}, {"measurement": "CD69^+ TH cells (CD45^+CD4^+CD69^+) TH Gated %", "setting": "[4]", "value": "61.50% and 60.62% and 67.91% and 45.46% and 68.87% and 63.43%"}, {"measurement": "CD69^+ TH cells (CD45^+CD4^+CD69^+) Total %", "setting": "[4]", "value": "16.35% and 15.22% and 13.01% and 11.04% and 16.92% and 20.76%"}, {"measurement": "Foxp3^+ Treg cells (CD45^+CD4^+CD25^+Foxp3^+) Cell count (×10^5)", "setting": "[4]", "value": "0.02 ×10^5 and 0.08 ×10^5 and 0.07 ×10^5 and 0.12 ×10^5 and 0.04 ×10^5 and 0.11 ×10^5"}, {"measurement": "Foxp3^+ Treg cells (CD45^+CD4^+CD25^+Foxp3^+) TH Gated %", "setting": "[4]", "value": "4.64% and 2.22% and 3.57% and 2.45% and 1.41% and 3.92%"}, {"measurement": "Foxp3^+ Treg cells (CD45^+CD4^+CD25^+Foxp3^+) Total %", "setting": "[4]", "value": "0.07% and 0.06% (2×) and 0.10% and 0.12% and 0.13%"}, {"measurement": "PD-1^+ TH cells (CD45^+CD4^+ PD-1^+) Cell count (×10^5)", "setting": "[4]", "value": "7.02 ×10^5 and 29.44 ×10^5 and 11.76 ×10^5 and 23.76 ×10^5 and 18.24 ×10^5 and 27.01 ×10^5"}, {"measurement": "PD-1^+ TH cells (CD45^+CD4^+ PD-1^+) TH Gated %", "setting": "[4]", "value": "96.86% and 94.38% and 95.57% and 98.57% and 97.07% and 99.62%"}, {"measurement": "PD-1^+ TH cells (CD45^+CD4^+ PD-1^+) Total %", "setting": "[4]", "value": "24.22% and 23.33% and 16.66% and 24.05% and 24.52% and 33.34%"}, {"measurement": "TH cells (CD45^+CD4^+) CD45^+ Gated %", "setting": "[4]", "value": "37.76% and 41.33% and 35.50% and 40.55% and 38.34% and 57.62%"}, {"measurement": "TH cells (CD45^+CD4^+) Cell count (×10^5)", "setting": "[4]", "value": "7.25 ×10^5 and 31.20 ×10^5 and 12.31 ×10^5 and 24.11 ×10^5 and 18.79 ×10^5 and 27.11 ×10^5"}, {"measurement": "TH cells (CD45^+CD4^+) Total %", "setting": "[4]", "value": "25.00% and 24.72% and 17.44% and 24.40% and 25.26% and 33.47%"}]}]}
